The structures appear in SMILES notation.

In the assay the test system is MV-4-11 cells. Put plainly: Gene expression microarray analysis (Affymetrix PrimeView) and GSEA. Set-up: RFU PODN (11730768_x_at) / Fold change /veh PODN (11730768_x_at) / RFU LINC00158 (11744669_a_at) / Fold change /veh LINC00158 (11744669_a_at) / RFU DUSP10 (11751237_a_at) / Fold change /veh DUSP10 (11751237_a_at) / RFU ID3 (11757404_x_at) / Fold change /veh ID3 (11757404_x_at) / RFU PLEKHG5 (11737974_s_at) / Fold change /veh PLEKHG5 (11737974_s_at) / RFU LRRC4B (11730491_at) / Fold change /veh LRRC4B (11730491_at) / RFU GIMAP4 (11747438_a_at) / Fold change /veh GIMAP4 (11747438_a_at) / RFU KRT8 (11758183_x_at) / Fold change /veh KRT8 (11758183_x_at) / RFU CNN1 (11734310_a_at) / Fold change /veh CNN1 (11734310_a_at) / RFU VPS37D (11726825_at) / Fold change /veh VPS37D (11726825_at) / RFU C10orf10 (11716522_x_at) / Fold change /veh C10orf10 (11716522_x_at) / RFU KIR2DL2 /// KIR2DL4 /// KIR2DL5A /// KIR2DL5B /// KIR2DS1 /// KIR2DS2 /// KIR2DS3 /// KIR2DS4 /// KIR3DL3 /// KIR3DL3 /// KIR3DS1 (11738374_at) / Fold change /veh KIR2DL2 /// KIR2DL4 /// KIR2DL5A /// KIR2DL5B /// KIR2DS1 /// KIR2DS2 /// KIR2DS3 /// KIR2DS4 /// KIR3DL3 /// KIR3DL3 /// KIR3DS1 (11738374_at) / RFU C1QL1 (11718748_at) / Fold change /veh C1QL1 (11718748_at) / RFU TMPRSS4 (11747572_a_at) / Fold change /veh TMPRSS4 (11747572_a_at) / RFU HAMP (11756126_x_at) / Fold change /veh HAMP (11756126_x_at) / RFU RNFT2 (11725882_a_at) / Fold change /veh RNFT2 (11725882_a_at) / RFU NR4A2 (11747474_a_at) / Fold change /veh NR4A2 (11747474_a_at) / RFU ABCC12 (11746883_a_at) / Fold change /veh ABCC12 (11746883_a_at) / RFU TMEM136 (11760407_x_at) / Fold change /veh TMEM136 (11760407_x_at) / RFU CLDN22 /// WWC2 (11732394_at) / Fold change /veh CLDN22 /// WWC2 (11732394_at) / RFU HLA-DPB1 (11760878_x_at) / Fold change /veh HLA-DPB1 (11760878_x_at) / RFU SPINT1 (11716480_a_at) / Fold change /veh SPINT1 (11716480_a_at) / RFU GAP43 (11754022_s_at) / Fold change /veh GAP43 (11754022_s_at) / RFU A4GNT (11735810_at) / Fold change /veh A4GNT (11735810_at) / RFU PRB3 (11715151_x_at) / Fold change /veh PRB3 (11715151_x_at) / RFU TUBB4B (11761932_at) / Fold change /veh TUBB4B (11761932_at) / RFU CAPN14 (11732068_a_at) / Fold change /veh CAPN14 (11732068_a_at) / RFU TMCC2 (11721928_a_at) / Fold change /veh TMCC2 (11721928_a_at) / RFU IRGQ (11745062_a_at) / Fold change /veh IRGQ (11745062_a_at) / RFU FAM174B (11720279_a_at) / Fold change /veh FAM174B (11720279_a_at) / RFU TMPRSS4 (11748680_a_at) / Fold change /veh TMPRSS4 (11748680_a_at) / RFU FAM212B (11763350_a_at) / Fold change /veh FAM212B (11763350_a_at) / RFU PLEKHG5 (11743358_a_at) / Fold change /veh PLEKHG5 (11743358_a_at) / RFU ZSCAN30 (11745921_a_at) / Fold change /veh ZSCAN30 (11745921_a_at) / RFU CMKLR1 (11741424_a_at) / Fold change /veh CMKLR1 (11741424_a_at) / RFU LOC101060620 /// MAPK8IP1 (11723275_at) / Fold change /veh LOC101060620 /// MAPK8IP1 (11723275_at) / RFU SPTSSB (11747773_x_at) / Fold change /veh SPTSSB (11747773_x_at) / RFU PRSS12 (11739890_at) / Fold change /veh PRSS12 (11739890_at) / RFU BIN1 (11741810_x_at) / Fold change /veh BIN1 (11741810_x_at) / RFU WNT11 (11732464_a_at) / Fold change /veh WNT11 (11732464_a_at) / RFU C10orf10 (11716521_a_at) / Fold change /veh C10orf10 (11716521_a_at) / RFU C5orf56 (11738089_at) / Fold change /veh C5orf56 (11738089_at) / RFU CYB561 (11721691_x_at) / Fold change /veh CYB561 (11721691_x_at) / RFU ANKRD19P (11752326_a_at) / Fold change /veh ANKRD19P (11752326_a_at) / RFU OR2T12 /// OR2T33 /// OR2T8 (11738714_s_at) / Fold change /veh OR2T12 /// OR2T33 /// OR2T8 (11738714_s_at) / RFU VCAN (11748164_a_at) / Fold change /veh VCAN (11748164_a_at) / RFU JSRP1 (11732532_at) / Fold change /veh JSRP1 (11732532_at) / RFU KRTAP10-11 (11738290_x_at) / Fold change /veh KRTAP10-11 (11738290_x_at) / RFU MYO3A (11730013_a_at) / Fold change /veh MYO3A (11730013_a_at) / RFU EBF3 (11725865_a_at) / Fold change /veh EBF3 (11725865_a_at) / RFU CAMK2N1 (11719241_x_at) / Fold change /veh CAMK2N1 (11719241_x_at) / RFU C5orf56 (11738088_a_at) / Fold change /veh C5orf56 (11738088_a_at) / RFU OLFML3 (11715873_a_at) / Fold change /veh OLFML3 (11715873_a_at) / RFU LOC100653217 /// NTM (11731650_a_at) / Fold change /veh LOC100653217 /// NTM (11731650_a_at) / RFU MAPK11 (11762145_a_at) / Fold change /veh MAPK11 (11762145_a_at) / RFU FIZ1 (11724087_x_at) / Fold change /veh FIZ1 (11724087_x_at) / RFU OASL (11726364_x_at) / Fold change /veh OASL (11726364_x_at) / RFU SOX15 (11748057_x_at) / Fold change /veh SOX15 (11748057_x_at) / RFU CD79A (11719716_a_at) / Fold change /veh CD79A (11719716_a_at) / RFU HIST1H1D (11736915_at) / Fold change /veh HIST1H1D (11736915_at) / RFU CASKIN2 (11723855_a_at) / Fold change /veh CASKIN2 (11723855_a_at) / RFU LOC730098 (11760151_x_at) / Fold change /veh LOC730098 (11760151_x_at) / RFU OR4N2 (11742367_at) / Fold change /veh OR4N2 (11742367_at) / RFU PRRT2 (11749266_a_at) / Fold change /veh PRRT2 (11749266_a_at) / RFU SNX32 (11753110_a_at) / Fold change /veh SNX32 (11753110_a_at) / RFU CDHR5 (11726645_a_at) / Fold change /veh CDHR5 (11726645_a_at) / RFU RCAN1 (11760418_a_at) / Fold change /veh RCAN1 (11760418_a_at) / RFU FAM167A (11723789_a_at) / Fold change /veh FAM167A (11723789_a_at) / RFU FAM26E (11764081_at) / Fold change /veh FAM26E (11764081_at) / RFU ISYNA1 (11749810_s_at) / Fold change /veh ISYNA1 (11749810_s_at) / RFU ACY1 (11761880_at) / Fold change /veh ACY1 (11761880_at) / RFU 11764098_at / Fold change /veh 11764098_at / RFU SAMD14 (11745864_x_at) / Fold change /veh SAMD14 (11745864_x_at) / RFU NPB (11741838_a_at) / Fold change /veh NPB (11741838_a_at) / RFU TMPRSS6 (11731388_a_at) / Fold change /veh TMPRSS6 (11731388_a_at) / RFU KRTAP10-2 (11738614_at) / Fold change /veh KRTAP10-2 (11738614_at) / RFU ARHGAP8 /// PRR5-ARHGAP8 (11727945_x_at) / Fold change /veh ARHGAP8 /// PRR5-ARHGAP8 (11727945_x_at) / RFU KRTAP5-7 /// NADSYN1 (11734609_at) / Fold change /veh KRTAP5-7 /// NADSYN1 (11734609_at) / RFU RASL12 (11751679_a_at) / Fold change /veh RASL12 (11751679_a_at) / RFU CDKN2B (11736163_a_at) / Fold change /veh CDKN2B (11736163_a_at) / RFU PRF1 (11729649_at) / Fold change /veh PRF1 (11729649_at) / RFU, ZNF638 /// ZNF638-IT1 / Fold change vs veh, ZNF638 /// ZNF638-IT1 / RFU, PANK3 / Fold change vs veh, PANK3 / RFU, SH3YL1 / Fold change vs veh, SH3YL1 / RFU, ZEB2 / Fold change vs veh, ZEB2 / RFU, NRIP1 / Fold change vs veh, NRIP1 / RFU, PTTG1IP / Fold change vs veh, PTTG1IP / RFU, CAPN2 / Fold change vs veh, CAPN2 / RFU, MED14 / Fold change vs veh, MED14 / RFU, SNORA58 / Fold change vs veh, SNORA58 / RFU, C1orf63 / Fold change vs veh, C1orf63 / RFU, LRRFIP1 / Fold change vs veh, LRRFIP1 / RFU, NDUFAF7 / Fold change vs veh, NDUFAF7 / RFU, SLC12A2 / Fold change vs veh, SLC12A2 / RFU, IBTK / Fold change vs veh, IBTK / RFU, ESF1 / Fold change vs veh, ESF1 / Fold change vs veh, TMEM50B / RFU, TAOK1 / Fold change vs veh, TAOK1 / RFU, ACBD3 / Fold change vs veh, ACBD3 / RFU, TMA16 / Fold change vs veh, TMA16 / RFU, RWDD3 / Fold change vs veh, RWDD3 / RFU, BCAT1 / Fold change vs veh, BCAT1 / RFU, EDEM3 / Fold change vs veh, EDEM3 / RFU, TMEM33 / Fold change vs veh, TMEM33 / RFU, WDR75 / Fold change vs veh, WDR75 / RFU, AHCTF1 / Fold change vs veh, AHCTF1 / RFU, TFRC / Fold change vs veh, TFRC / RFU, ZDHHC17 / Fold change vs veh, ZDHHC17 / RFU, NOM1 / Fold change vs veh, NOM1 / RFU, ARL8B / Fold change vs veh, ARL8B / RFU, ZBTB11 / Fold change vs veh, ZBTB11 / RFU, TAMM41 / Fold change vs veh, TAMM41 / RFU, KIAA1704 /// LOC100996395 / Fold change vs veh, KIAA1704 /// LOC100996395 / RFU, ING1 / Fold change vs veh, ING1 / RFU, TRMT61B / Fold change vs veh, TRMT61B / RFU, FUBP3 / Fold change vs veh, FUBP3 / RFU, TP53 / Fold change vs veh, TP53 / RFU, TNKS2 / Fold change vs veh, TNKS2 / RFU, ZFP14 / Fold change vs veh, ZFP14 / RFU, ACTR2 / Fold change vs veh, ACTR2 / RFU, PPP3R1 / Fold change vs veh, PPP3R1 / RFU, PIK3R1 / Fold change vs veh, PIK3R1 / RFU, HNRNPA1 / Fold change vs veh, HNRNPA1 / RFU, RNF170 / Fold change vs veh, RNF170 / RFU, ZNF28 / Fold change vs veh, ZNF28 / RFU, RNGTT / Fold change vs veh, RNGTT / RFU, OGT / Fold change vs veh, OGT / RFU, BRD1 / Fold change vs veh, BRD1 / RFU, MARS / Fold change vs veh, MARS / RFU, ZNF655 / Fold change vs veh, ZNF655 / RFU, FAHD1 / Fold change vs veh, FAHD1 / RFU, BDP1 / Fold change vs veh, BDP1 / RFU, LRRCC1 / Fold change vs veh, LRRCC1 / RFU, ARID1A / Fold change vs veh, ARID1A / RFU, ZNF146 / Fold change vs veh, ZNF146 / RFU, ZNF330 / Fold change vs veh, ZNF330 / RFU, GPN3 / Fold change vs veh, GPN3 / RFU, C9orf123 / Fold change vs veh, C9orf123 / RFU, N4BP2L2 / Fold change vs veh, N4BP2L2 / RFU, ARFIP1 / Fold change vs veh, ARFIP1 / RFU, FAM179B / Fold change vs veh, FAM179B / RFU, BCL10 / Fold change vs veh, BCL10 / RFU, UHRF1BP1L / Fold change vs veh, UHRF1BP1L / RFU, BET1 / Fold change vs veh, BET1 / RFU, CNOT2 / Fold change vs veh, CNOT2 / RFU, ZNF268 / Fold change vs veh, ZNF268 / Fold change vs veh, ZNF507 / RFU, DGCR2 / Fold change vs veh, DGCR2 / RFU, WDSUB1 / Fold change vs veh, WDSUB1 / Fold change vs veh, HSP90B1 /// MIR3652 / RFU, ADSS / Fold change vs veh, ADSS / RFU, GK / Fold change vs veh, GK / RFU, ZNF148 / Fold change vs veh, ZNF148 / RFU, TAF9 / Fold change vs veh, TAF9 / RFU, SLC1A5 / Fold change vs veh, SLC1A5 / RFU, SLMO2 / Fold change vs veh, SLMO2 / RFU, ABCC4 / Fold change vs veh, ABCC4 / RFU, LOC101060439 /// RAP1B / Fold change vs veh, LOC101060439 /// RAP1B / RFU, RFX7 / Fold change vs veh, RFX7 / RFU, GTPBP10 / Fold change vs veh, GTPBP10 / RFU, CNEP1R1 / Fold change vs veh, CNEP1R1 / RFU, BIVM-ERCC5 /// ERCC5 / Fold change vs veh, BIVM-ERCC5 /// ERCC5 / RFU, ILF3 / Fold change vs veh, ILF3 / RFU 11762660_at / Fold change /veh 11762660_at / RFU VCAN (11757783_s_at) / Fold change /veh VCAN (11757783_s_at) / RFU DDX43 (11728927_at) / Fold change /veh DDX43 (11728927_at) / RFU KRT8 (11758188_x_at) / Fold change /veh KRT8 (11758188_x_at) / RFU NKD1 (11759106_at) / Fold change /veh NKD1 (11759106_at) / RFU SRD5A1 (11742802_a_at) / Fold change /veh SRD5A1 (11742802_a_at) / RFU TPSAB1 /// TPSB2 (11721975_s_at) / Fold change /veh TPSAB1 /// TPSB2 (11721975_s_at) / RFU GSTM3 (11746129_a_at) / Fold change /veh GSTM3 (11746129_a_at) / RFU IL23R (11737362_x_at) / Fold change /veh IL23R (11737362_x_at) / RFU TMEM51 (11727254_a_at) / Fold change /veh TMEM51 (11727254_a_at) / RFU PIWIL2 (11732686_x_at) / Fold change /veh PIWIL2 (11732686_x_at) / RFU ORM1 (11744905_x_at) / Fold change /veh ORM1 (11744905_x_at) / RFU CCDC152 (11743942_at) / Fold change /veh CCDC152 (11743942_at) / RFU ECM1 (11717891_a_at) / Fold change /veh ECM1 (11717891_a_at) / RFU IL23R (11748794_a_at) / Fold change /veh IL23R (11748794_a_at) / RFU TNFAIP8L3 (11732012_x_at) / Fold change /veh TNFAIP8L3 (11732012_x_at) / RFU MBOAT4 (11741988_at) / Fold change /veh MBOAT4 (11741988_at) / RFU 11764193_at / Fold change /veh 11764193_at / RFU TMEM53 (11763286_at) / Fold change /veh TMEM53 (11763286_at) / RFU MAGEB2 (11727129_at) / Fold change /veh MAGEB2 (11727129_at) / RFU TMEM200A (11744735_a_at) / Fold change /veh TMEM200A (11744735_a_at) / RFU CCDC152 (11751479_a_at) / Fold change /veh CCDC152 (11751479_a_at) / RFU FAM211A (11726209_a_at) / Fold change /veh FAM211A (11726209_a_at) / RFU RGS16 (11746705_a_at) / Fold change /veh RGS16 (11746705_a_at) / RFU VCAN (11755009_s_at) / Fold change /veh VCAN (11755009_s_at) / RFU RHOB (11743442_s_at) / Fold change /veh RHOB (11743442_s_at) / RFU RGS16 (11720943_a_at) / Fold change /veh RGS16 (11720943_a_at) / RFU RGS16 (11720944_at) / Fold change /veh RGS16 (11720944_at) / RFU, VPS4B / Fold change vs veh, VPS4B / RFU, CREB1 / Fold change vs veh, CREB1 / RFU, DNAJC13 / Fold change vs veh, DNAJC13 / RFU, GNAQ / Fold change vs veh, GNAQ / RFU, CDK5R1 / Fold change vs veh, CDK5R1 / RFU, ZRANB3 / Fold change vs veh, ZRANB3 / RFU, CUL4A / Fold change vs veh, CUL4A / RFU, CCNY / Fold change vs veh, CCNY / RFU, UFL1 / Fold change vs veh, UFL1 / RFU, COG3 / Fold change vs veh, COG3 / RFU, DIAPH2 / Fold change vs veh, DIAPH2 / RFU, SKA2 / Fold change vs veh, SKA2 / RFU, AFF3 / Fold change vs veh, AFF3 / RFU, LMF1 / Fold change vs veh, LMF1 / RFU, IPO11 / Fold change vs veh, IPO11 / RFU, DFFB / Fold change vs veh, DFFB / RFU, FOXP1 / Fold change vs veh, FOXP1 / RFU, CARD8 / Fold change vs veh, CARD8 / RFU, STRN3 / Fold change vs veh, STRN3 / RFU, ADK / Fold change vs veh, ADK / RFU, RASSF2 / Fold change vs veh, RASSF2 / RFU, WIPF1 / Fold change vs veh, WIPF1 / RFU, LARP1B / Fold change vs veh, LARP1B / RFU, RASA1 / Fold change vs veh, RASA1 / RFU, RB1 / Fold change vs veh, RB1 / RFU, PPFIA1 / Fold change vs veh, PPFIA1 / RFU, MAT2A / Fold change vs veh, MAT2A / RFU, CCT5 / Fold change vs veh, CCT5 / RFU, WDR92 / Fold change vs veh, WDR92 / RFU, CUX1 / Fold change vs veh, CUX1 / RFU, TTC7A / Fold change vs veh, TTC7A / RFU, TMEM135 / Fold change vs veh, TMEM135 / RFU, DEPTOR / Fold change vs veh, DEPTOR / RFU, CPM / Fold change vs veh, CPM / RFU, DNAJB6 / Fold change vs veh, DNAJB6 / RFU, CACNA2D3 / Fold change vs veh, CACNA2D3 / RFU, DTX4 / Fold change vs veh, DTX4 / RFU, TFCP2 / Fold change vs veh, TFCP2 / RFU, GMCL1 /// GMCL1P1 / Fold change vs veh, GMCL1 /// GMCL1P1 / RFU, AEBP2 / Fold change vs veh, AEBP2 / RFU, SNHG1 /// SNORD22 /// SNORD25 /// SNORD26 /// SNORD27 /// SNORD28 /// SNORD29 /// SNORD31 / Fold change vs veh, SNHG1 /// SNORD22 /// SNORD25 /// SNORD26 /// SNORD27 /// SNORD28 /// SNORD29 /// SNORD31 / Fold change (Aza/veh), C12orf56 (ProbeSet 11735607_a_at) / Fold change (ACY-1035/veh), C12orf56 (ProbeSet 11735607_a_at) / Fold change (Aza/veh), FGFR1OP (ProbeSet 11751329_s_at) / Fold change (ACY-1035/veh), FGFR1OP (ProbeSet 11751329_s_at) / Fold change (Aza/veh), VPS36 (ProbeSet 11739960_a_at) / Fold change (ACY-1035/veh), VPS36 (ProbeSet 11739960_a_at) / RFU SYPL1 (11715823_x_at) / Fold change /veh SYPL1 (11715823_x_at) / RFU IGFBP7 (11715501_s_at) / Fold change /veh IGFBP7 (11715501_s_at) / RFU REEP3 (11722064_at) / Fold change /veh REEP3 (11722064_at) / RFU IGLL1 (11728026_x_at) / Fold change /veh IGLL1 (11728026_x_at): dose or concentration left out as unconfirmed. The note with it: MV-4-11 cells, 48 hours. Format: cell-based, human.

`Nc1ccc(-c2cccs2)cc1NC(=O)c1ccc2c(c1)cc(C1CC1)n2CCN1CCOCC1` [ACY-1035]: the “RFU HIST1H1D (11736915_at)” value was found to be 13.65 RFU.

Values taken from publication PMC5218480 (PLoS ONE, 2017).
